This is an account of results in US20250026724A1, “(1,4,5-TRISUBSTITUTED 1H-PYRAZOL-3-YL)OXY-2-ALKYLTHIOALKYL ACIDS AND -ALKYL ACID DERIVATIVES, SALTS THEREOF AND USE THEREOF AS ACTIVE HERBICIDAL INGREDIENTS” (BAYER AKTIENGESELLSCHAFT, priority 2021, published 2025).

Common to all, as to assay type: in vivo
Data set [1] deals with Echinochloa crus-galli (ECHCG). Description: Post-emergence herbicidal action, greenhouse pot trial. As to conditions: for pest or weed control at 320 g/ha: read-out: Post-emergence effect at 320 g/ha against ECHCG in %. The procedure, abridged:
(§1)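 Visual % activity versus untreated controls (100% = plants died, 0% = like control), scored about 3 weeks post-spray. Plants grown in sandy loam pots under greenhouse conditions were treated at the one-leaf stage with WP or EC formulations at 320 g/ha or lower.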

The subject of data set [2] is Setaria viridis (SETVI). The description is as above. As to conditions: for pest or weed control at 320 g/ha: Setaria viridis, 504 h, read-out: Post-emergence effect at 320 g/ha against SETVI in %. The procedure, abridged:
as §1

In data set [3] the test system is Oryza sativa (ORYSA). Description: Post-emergence crop plant compatibility, greenhouse pot trial. The conditions noted are these: in comparison to untreated controls. The protocol: (§2) Seeds of monocotyledonous and dicotyledonous weeds and crop plants are placed in sandy loam in plastic or organic planting pots, covered with soil and cultivated in a greenhouse under controlled growth conditions. 2 to 3 weeks after sowing, the trial plants are treated at the one-leaf stage. The compounds of the invention, formulated in the form of wettable powders (WP) or as emulsion concentrates (EC), are then sprayed onto the green parts of the plants as aqueous suspension or emulsion with addition of 0.5% additive at a water application rate equivalent to 600 l/ha. After about 3 weeks of keeping the trial plants in the greenhouse under optimum growth conditions, the effect of the preparations is rated visually in comparison to untreated controls. For example, 100% activity=the plants have died, 0% activity=like control plants.
(§3) The observed effects on selected crop plants are reported here in comparison to the untreated controls (values in %). The appendices “a”, “b” and “c” give differentiation by dosage used with otherwise the same useful plants tested.
(§4) As shown by results from Tables B1 to B19, inventive compounds of the general formula (I) in the case of post-emergence treatment have good herbicidal efficacy against harmful plants, for example Abutilon theophrasti (ABUTH), Alopecurus myosuroides (ALOMY), Amaranthus retroflexus (AMARE), Avena fatua (AVEFA), Digitaria sanguinalis (DIGSA), Echinochloa crus-galli (ECHCG), Bassia scoparia (KCHSC), Lolium rigidum (LOLRI), Matricaria inodora (MATIN), Pharbitis purpurea (PHBPU), Polygonum convolvulus (POLCO), Setaria viridis (SETVI), Veronica persica (VERPE) and Viola tricolor (VIOTR) at an application rate of 320 g of active substance or less per hectare, and good crop plant compatibility in the case of organisms such as Oryza sativa (ORYSA), Zea mays (ZEAMX), Brassica napus (BRSNW), Glycine max (GLXMA) and Triticum aestivum (TRZAS) at an application rate of 320 g or less per hectare.

The subject of data set [4] is Glycine max (GLXMA). The description is as above. The conditions noted are these: in comparison to untreated controls. The protocol:
as §2, §3, §4

In data set [5] the test system is Zea mays (ZEAMX). The data set is described as above. As to conditions: in comparison to untreated controls. The protocol: as §2, §3, §4
Data set [6] relates to Triticum aestivum (TRZAS). Described as above. The conditions noted are these: post-emergence; for Post-emergence effect against TRZAS (crop plant compatibility): in comparison to untreated controls; for Post-emergence effect at 320 g/ha against TRZAS in %: crop plant compatibility (effect on crop vs untreated controls). As to the method:
as §2, §3, §4

The test system of data set [7] is Brassica napus (BRSNW). The description is as above. As to conditions: 20 g/ha, in comparison to untreated controls. The protocol:
as §2, §3, §4

Data set [8] deals with Polygonum convolvulus (POLCO). Briefly: Post-emergence herbicidal action, greenhouse pot trial. As to conditions: visual rating after about 3 weeks. The procedure, abridged: as §1
Data set [9] concerns Viola tricolor (VIOTR). The data set is described as above. The procedure, abridged:
as §1

Data set [10] deals with Pharbitis purpurea (PHBPU). Described as above. As to conditions: Ipomoea purpurea, 504 h, 320 g/ha, visual rating after about 3 weeks, read-out: Post-emergence effect at 320 g/ha against PHBPU in %. The procedure, abridged: as §1
Data set [11] deals with Alopecurus myosuroides (ALOMY). The data set is described as above. As to conditions: 320 g/ha, visual rating after about 3 weeks. The method, boiled down: as §1
Data set [12] deals with Lolium rigidum (LOLRI). Described as above. As to conditions: Lolium rigidum, 504 h, 320 g/ha, visual rating after about 3 weeks, read-out: Post-emergence effect at 320 g/ha against LOLRI in %. The procedure, abridged: as §1
Data set [13] concerns Abutilon theophrasti (ABUTH). Described as above. As to conditions: 320 g/ha, visual rating after about 3 weeks. The method, boiled down:
as §1

Data set [14] relates to Matricaria inodora (MATIN). The description is as above. The conditions noted are these: visual rating after about 3 weeks. The procedure, abridged:
as §1

The test system of data set [15] is Polygonum convolvulus (POLCO). Briefly: Pre-emergence herbicidal effect, greenhouse pot trial. The conditions noted are these: visual rating after about 3 weeks vs untreated controls. An excerpt: (§5) Seeds of monocotyledonous and dicotyledonous weed plants and crop plants are placed in plastic or organic planting pots and covered with soil. The compounds of the invention, formulated in the form of wettable powders (WP) or as emulsion concentrates (EC), are then applied to the surface of the covering soil as aqueous suspension or emulsion with addition of 0.5% additive at a water application rate equivalent to 600 1/ha. After the treatment, the pots are placed in a greenhouse and kept under good growth conditions for the trial plants. After about 3 weeks, the effect of the preparations is rated visually in comparison with untreated controls as percentages. For example, 100% activity=the plants have died, 0% activity=like control plants.
(§6) Tables A1 and A2 below show the effects of selected compounds of the general formula (I) according to Table 1 on various harmful plants and at an application rate corresponding to 320 g/ha or lower, which were obtained by the trial procedure specified above. The appendices “a” and “b” give differentiation by dosage used with otherwise the same harmful plants tested.
(§7) As shown by the results from Tables A1 and A2, compounds of the invention have good pre-emergence herbicidal efficacy against harmful plants, for example against harmful plants such as Amaranthus retroflexus (AMARE) and Polygonum convolvulus (POLCO).

Data set [16] concerns Amaranthus retroflexus (AMARE). The description is as above. The conditions noted are these: visual rating after about 3 weeks vs untreated controls.
Source text: as §5, §6, §7

The test system of data set [17] is Amaranthus retroflexus (AMARE). Description: Post-emergence herbicidal action, greenhouse pot trial. As to conditions: visual rating after about 3 weeks. The procedure, abridged: as §1
Data set [18] deals with Digitaria sanguinalis (DIGSA). Described as above. As to conditions: 320 g/ha, visual rating after about 3 weeks. The method, boiled down:
as §1

Where [19] appears, read: 320 g/ha, visual rating after about 3 weeks.

Where two headings read alike, the source gives them in different places.

Consider `CCOC(=O)C(Oc1nn(-c2cc(F)ccc2F)c(-c2cncc(F)c2)c1C1CC1)SC` (stereo not drawn) [Example I-05], for which the pest or weed control at 320 g/ha in [1] (Echinochloa crus-galli, 504 h) turned out to be 80%; in data set [2] it was 90%. Moreover, the “Post-emergence effect against ORYSA (crop plant compatibility)” value (shortened to “Post-emergence effect against ORYSA”) in data set [3] (20 g/ha) was determined as 0%; in [3] (80 g/ha), 0%; in [3] (320 g/ha) it was 10%. Also, the “Post-emergence effect against GLXMA (crop plant compatibility)” value (shortened to “Post-emergence effect against GLXMA”) in [4] (20 g/ha) worked out at 0%; in data set [4] (80 g/ha), 10%. The “Post-emergence effect against ZEAMX (crop plant compatibility)” value (shortened to “Post-emergence effect against ZEAMX”) in data set [5] (20 g/ha) came out at 20%. The “Post-emergence effect against TRZAS (crop plant compatibility)” value (shortened to “Post-emergence effect against TRZAS”) in data set [6] (20 g/ha) was 0%; in data set [6] (80 g/ha), 10%.
For `CCOC(=O)C(Oc1nn(-c2ccc(Cl)cc2F)c(-c2ccc(F)cc2F)c1Br)SC` (stereo not drawn) [Example I-12], the “Post-emergence effect against ORYSA” value in data set [3] (20 g/ha), in [3] (80 g/ha) and in data set [3] (320 g/ha) was 0% each time. For the same molecule, the “Post-emergence effect against BRSNW (crop plant compatibility)” value in [7] is on record as 0%. Besides, the “Post-emergence effect against GLXMA” value in data set [4] (20 g/ha), in [4] (80 g/ha) and in data set [4] (320 g/ha) was 0% throughout. Moreover, the “Post-emergence effect against ZEAMX” value in [5] (20 g/ha), in data set [5] (80 g/ha) and in data set [5] (320 g/ha) was 0% in each case. The “Post-emergence effect against TRZAS” value in data set [6] (20 g/ha) and in [6] (80 g/ha) was 0% each time. Besides, in data set [6], the “Post-emergence effect at 320 g/ha against TRZAS in %” value came to 0%.
In the case of `CCOC(=O)C(Oc1nn(-c2ccccc2F)c(-c2ccc(F)nc2)c1Br)SC` (stereo not drawn) [Example I-01], the pest or weed control at 80 g/ha was 80% in [8] (Fallopia convolvulus, 504 h, 80 g/ha, read-out: Post-emergence effect at 80 g/ha against POLCO in %); 80% in data set [1] (Echinochloa crus-galli, 504 h, 80 g/ha, visual rating after about 3 weeks, read-out: Post-emergence effect at 80 g/ha against ECHCG in %); 80% in data set [14] (Tripleurospermum inodorum, 504 h, 80 g/ha, read-out: Post-emergence effect at 80 g/ha against MATIN in %). Besides, the pest or weed control at 320 g/ha in data set [8] (Fallopia convolvulus, 504 h, 320 g/ha, read-out: Post-emergence effect at 320 g/ha against POLCO in %) worked out at 80%; in data set [1] (Echinochloa crus-galli, 504 h, 320 g/ha, visual rating after about 3 weeks), 80%; in data set [2] (setting [19]) it was 80%; in data set [9] (Viola tricolor, 504 h, 320 g/ha, read-out: Post-emergence effect against VIOTR) it was 80%; in data set [10], 90%; in [11] (Alopecurus myosuroides, 504 h, read-out: Post-emergence effect at 320 g/ha against ALOMY in %), 80%. For the same molecule, the pest or weed control at 320 g/ha in data set [12] was 80%; in data set [13] (Abutilon theophrasti, 504 h, read-out: Post-emergence effect at 320 g/ha against ABUTH in %), 80%; in data set [14] (Tripleurospermum inodorum, 504 h, 320 g/ha, read-out: Post-emergence effect at 320 g/ha against MATIN in %), 80%. The “Pre-emergence effect at 80 g/ha against POLCO in %” value in [15] (80 g/ha) is given as 80%. In addition, the “Pre-emergence effect at 320 g/ha against POLCO in %” value in data set [15] (320 g/ha) came to 80%. Moreover, the “Pre-emergence effect at 80 g/ha against AMARE in %” value in data set [16] (80 g/ha) stood at 90%. In addition, the “Pre-emergence effect at 320 g/ha against AMARE in %” value in data set [16] (320 g/ha) is on record as 100%.
On to `CCOC(=O)C(Oc1nn(-c2ncccc2F)c(-c2ccc(Cl)cc2)c1Br)SC` (stereo not drawn) [Example I-15], for which the “Post-emergence effect against ORYSA” value in [3] (20 g/ha), in data set [3] (80 g/ha) and in [3] (320 g/ha) was 0% throughout. Moreover, the “Post-emergence effect against BRSNW (crop plant compatibility)” value in data set [7] was 0%. Moreover, the “Post-emergence effect against GLXMA” value in data set [4] (20 g/ha) is 0%; in data set [4] (80 g/ha) it was 10%. Moreover, the “Post-emergence effect against ZEAMX” value in [5] (20 g/ha) was 0%; in data set [5] (80 g/ha), 0%; in data set [5] (320 g/ha), 10%. Besides, the “Post-emergence effect against TRZAS” value in data set [6] (20 g/ha) and in data set [6] (80 g/ha) was 0% in each case. In data set [6], the “Post-emergence effect at 320 g/ha against TRZAS in %” value worked out at 10%.
`COC(=O)CCOC(=O)C(Oc1nn(-c2ccccc2F)c(-c2ccc(F)nc2)c1I)SC` (stereo not drawn) [Example I-54]: the “Post-emergence effect at 320 g/ha against POLCO in %” value in [8] (320 g/ha) amounted to 80%. In addition, the “Post-emergence effect at 320 g/ha against ECHCG in %” value in data set [1] (setting [19]) worked out at 90%. Further, in data set [2] (setting [19]), the “Post-emergence effect at 320 g/ha against SETVI in %” value was found to be 90%. Also, the “Post-emergence effect against VIOTR” value in data set [9] (80 g/ha) worked out at 80%; in [9] (320 g/ha), 90%. Also, the “Post-emergence effect at 80 g/ha against AMARE in %” value in [17] (80 g/ha) turned out to be 90%. Further, the “Post-emergence effect at 320 g/ha against AMARE in %” value in data set [17] (320 g/ha) is listed as 90%. In addition, the “Post-emergence effect at 320 g/ha against ALOMY in %” value in [11] is on record as 80%. In [18], the “Post-emergence effect at 320 g/ha against DIGSA in %” value is on record as 80%. The “Post-emergence effect at 320 g/ha against ABUTH in %” value in [13] is 80%. Also, the “Post-emergence effect at 320 g/ha against MATIN in %” value in data set [14] (320 g/ha) came out at 80%. Moreover, the “Post-emergence effect against GLXMA” value in data set [4] (20 g/ha) and in data set [4] (80 g/ha) was 0% throughout. The “Post-emergence effect against ZEAMX” value in data set [5] (20 g/ha) amounted to 0%. Besides, the “Post-emergence effect against TRZAS” value in data set [6] (20 g/ha) stood at 0%.
